From article PMC6838142, “Nano-Antagonist Alleviates Inflammation and Allows for MRI of Atherosclerosis” (Nanotheranostics, 2019)
Entries after “also recorded” stand apart in the source; their conditions may differ.

Assays:
[1] = tested on: bone marrow derived macrophages (BMDMs); assay: Immunoblot of IL-1β and HO-1 in LPS-stimulated BMDMs; format: cell-based, mouse
Description: Immunoblotting was performed as previously described with the following modifications. Briefly, cell lysates were obtained in SDS lysis buffer consisting of 2% SDS, 50 mM Tris-HCl (pH 6.8), 100 mM DTT, 5% Ficoll 400, 0.0001% bromophenol blue and a cocktail of protease inhibitors. Lysates were sonicated on ice before heating at 97 °C for 7 min to completely denature the protein. Protein concentration was determined using IR spectroscopy (which is insensitive to high SDS and DTT concentrations) with a Millipore DirectDetect spectrometer. Lysates were equally loaded at 10-15 µg per lane on BioRad TGX Criterion gels (4-15%) and resolved at 300 V in Tris-Glycine running buffer. Proteins were transferred on nitrocellulose membranes using the BioRad TransBlot turbo according to the manufacturer's instructions. Membranes were blocked in fish serum (Aqua Block) or 5% nonfat dry milk in TBS-T (0.05% Tween 20) and probed overnight at 4 °C with primary antibodies as indicated in Supplementary Table S1. The membranes were washed in TBS-T and incubated with secondary antibodies for 1 h at room temperature. After washing, semi-quantitative visualization of the proteins of interest was enabled using an enhanced chemiluminescence reagent as previously described and the Azure C400 western blot imaging system.
N-acetylcysteine (NAC) served as an antioxidant control. β-Actin was used as a loading control. B) Gene expression analysis in RAW cells treated with 1 µM of vehicle, CCTV and VTCC (peptide nanoparticle control) for 24 h. mRNA expression of mannose receptor (Mrc1), nitric oxide synthase 2 (Nos2), tumor necrosis factor (Tnf), interleukin-1beta (Il1b), and interleukin-6 (Il6) were analyzed. C) Cytokines in cell culture supernatants were analyzed as indicated. […] Metrics of chemotactic behaviour i.e. velocity, distance travelled, and chemotactic index were quantified as presented in bar graphs. […] P values are calculated by t-test and error bars are standard errors of three independent experiments.

BMDMs = assay: GSH/GSSG assay in LPS-primed BMDMs; format: cell-based, mouse; details: LPS-primed (100 ng/mL) BMDMs, 5 µM CCTV vs vehicle, 8 experiments
Description: GSH /GSSG, lactate dehydrogenase (LDH) and DCFDA assays were performed according to the manufacturer's instructions.

[2] = tested on: F4/80-positive plaque macrophages; assay: Immunohistochemistry / plaque macrophage co-staining; format: in vivo, mouse; details: mouse, in vivo
Description: Twenty-four hours after nanoparticle injection (see above), mice were euthanized and abdominal aortas were isolated and embedded in Optimal Cutting Temperature compound. After cryotome-sectioning, resulting in 20-30 slides per mouse, 15 slides were sent to Ohio State laser capture microdissection core lab for capture and analysis. The rest of the slides were processed as follows: after fixation in methanol:acetone 50:50 at -20 °C, slides were hydrated in PBS, blocked for 30 min in fish serum (Aqua Block) and stained for 1 h with primary antibodies against F4/80 followed washing and staining with HRP-conjugated secondary antibody for 30 min. DAB peroxidase kit was then used as per manufacturer's instructions followed by mounting. DAB and antibody staining (but not wash steps) was omitted in slides designated for nanoparticle fluorescence visualization. Nanoparticles fluorescence was visualized with Zeiss 510 LSM-meta confocal microscope and 20x objective. DAB F4/80 staining was visualized with Nikon FN1 microscope and same power objective.

TNFɑ = TNFɑ release, AlphaLISA; format: cell-based, mouse; details: inflammasome experiment supernatants, 4 experiments
Description: Cytokines were analyzed by EVE Technologies (https://www.evetechnologies.com) using the Luminex 31-Plex kit. Cell culture supernatants were diluted twice with PBS and provided in biological triplicates to EVE Technologies via overnight shipment in dry ice. Individual IL-1β and TNFɑ assays were performed using Perkin Elmer AlphaLISA kits, as per Supplementary Table S1 and vendor instructions.
BMDMs or J774 cells were plated in 48-well plates at 2 x 10^5 per well. Next day, the medium was changed to Opti-MEM (100 μL per well) without serum and the cells were allowed to equilibrate for 3 h. Next, the cells were pretreated with the indicated concentrations of nanoparticles or controls for 3 h followed by the addition of LPS to some wells to the final LPS concentration of 50 ng/mL. LPS priming continued for another 2 h, following which DMSO (vehicle), Nigericin (5 μM) or adenosine triphosphate (ATP) (1 mM) were added to some wells. Cells were incubated for an additional 30 min and cell culture supernatants were collected on ice. Cells were washed with cold PBS once and lysed/processed as described in immunoblotting section. The supernatants (90 μL) were mixed with 10 μL of 10x SDS loading buffer (10% SDS, 10% Ficoll 400, 0.5 M Tris pH 6.8, 0.5 M DTT, and 0.001% bromophenol blue) and heat-denatured as described in the immunoblotting section. […]

CCTV was tested, and the “HO-1 levels at high concentration” value ([1]; 50 µM) was “the effect was reversed”, the “HO-1 levels (immunoblot)” value ([1]; LPS 100 ng/mL, 16 h) was “reduced” and the “IL-1β production (immunoblot)” value ([1]; LPS 100 ng/mL, 16 h) was “dose-dependent reduction of IL-1β”. For the same substance, the GSH levels (BMDMs) was “unable to restore GSH levels; also recorded: unaffected”, the GSSG levels (BMDMs) was “unable to restore GSH levels or reduce GSSG; also recorded: unaffected” and the “co-staining with F4/80 in plaque” value [2] was “co-stained with CCTV”. The TNFɑ release (TNFɑ) was “completely unaffected”.
